Reference: ChEMBL document CHEMBL1201862, “PubChem BioAssay data set” (2004)
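Each compound was tested at five concentrations against cells in 96-well plates for 48 hours. Abbreviation: GI50, concentration required for 50% inhibition of growth.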 Active and inactive are the calls of the source. Rule as the data show it: active = GI50 up to about 1.1 µM and inactive = higher.

What was measured:
Test in all cases: NCI-60 cell line screen, 48 h
[1] = system: ACHN
[2] = system: HT-29
[3] = system: OVCAR-4
[4] = system: TK-10
[5] = system: HOP-92
[6] = system: HCT-15
[7] = system: UACC-62
[8] = system: SW-620
[9] = system: SK-MEL-5
[10] = system: SK-MEL-2
[11] = system: M14
[12] = system: SK-MEL-28
[13] = system: OVCAR-8
[14] = system: OVCAR-5
[15] = system: SR
[16] = system: SNB-19
[17] = system: HCT-116

Compound	GI50 [1]	GI50 [2]	GI50 [3]	GI50 [4]	GI50 [5]	GI50 [6]	GI50 [7]	GI50 [8]	GI50 [9]	GI50 [10]	GI50 [11]	GI50 [12]	GI50 [13]	GI50 [14]	GI50 [15]	GI50 [16]	GI50 [17]
O=C1CCC2(c3ccccc3)Nc3ccc(Cl)cc3N12 (centres undefined)	> 100 µM (inactive)	> 100 µM (inactive)	> 100 µM (inactive)	> 100 µM (inactive)	84.5 µM (inactive)	> 100 µM	> 100 µM (inactive)	> 100 µM (inactive)	> 100 µM (inactive)	> 100 µM (inactive)	> 100 µM (inactive)	> 100 µM (inactive)	> 100 µM (inactive)	> 100 µM (inactive)			
COC(=O)C(Cc1cc(OC)c(OC)c(OC)c1)C(=O)OC	> 320 µM (inactive)	> 320 µM (inactive)		> 320 µM (inactive)	> 320 µM (inactive)	> 320 µM	> 320 µM (inactive)	> 320 µM (inactive)	> 320 µM (inactive)	> 320 µM (inactive)		> 320 µM (inactive)	> 320 µM (inactive)	> 320 µM (inactive)	> 320 µM (inactive)		
O=C(Cc1nc2ccc([N+](=O)[O-])cc2nc1O)C(=O)Nc1ccccc1[N+](=O)[O-]	> 100 µM (inactive)	> 100 µM (inactive)	> 100 µM (inactive)	> 100 µM (inactive)	> 100 µM (inactive)	44.1 µM	> 100 µM (inactive)	> 100 µM (inactive)	> 100 µM (inactive)	> 100 µM (inactive)	> 100 µM (inactive)	> 100 µM (inactive)		> 100 µM (inactive)		> 100 µM (inactive)	95.7 µM (inactive)
COC(=O)c1cc(Cl)ccc1NC(=O)c1ccc([N+](=O)[O-])cc1	5.97 µM (inactive)	14.8 µM (inactive)	3.33 µM (inactive)	16.9 µM (inactive)		32.2 µM	24.2 µM (inactive)	29.9 µM (inactive)	47.5 µM (inactive)	49 µM (inactive)	29 µM (inactive)	28.2 µM (inactive)	15.9 µM (inactive)	> 100 µM (inactive)			4.78 µM (inactive)
Oc1ccc(C2Oc3cc(O)cc4c3C2c2cc(O)cc3c2C(c2cc(O)cc5c2C4C(c2ccc(O)cc2)O5)C(c2ccc(O)cc2)O3)cc1 (centres undefined)	> 25 µM (inactive)		4.4 µM (inactive)	> 25 µM (inactive)	3.94 µM (inactive)	> 25 µM	> 25 µM (inactive)	7.73 µM (inactive)	10.9 µM (inactive)	5.51 µM (inactive)	> 25 µM (inactive)	5.28 µM (inactive)	6.61 µM (inactive)	> 25 µM (inactive)	6.35 µM (inactive)	4.78 µM (inactive)	7.48 µM (inactive)
c1ccc2c(c1)nnn1c3cnccc3nc21	30.2 µM (inactive)	28.2 µM (inactive)	29 µM (inactive)	35.2 µM (inactive)	24.6 µM (inactive)	22.6 µM	47 µM (inactive)	32.4 µM (inactive)	52.6 µM (inactive)	53.2 µM (inactive)	91 µM (inactive)	> 100 µM (inactive)	30 µM (inactive)	63.8 µM (inactive)		47.6 µM (inactive)	27.6 µM (inactive)
O=C(N/C(=C\c1ccc(/C=C(\NC(=O)c2ccccc2)c2nc3cc([N+](=O)[O-])ccc3[nH]2)cc1)c1nc2cc([N+](=O)[O-])ccc2[nH]1)c1ccccc1	23.2 µM (inactive)	30.3 µM (inactive)	39.5 µM (inactive)	32.1 µM (inactive)	35.2 µM (inactive)	49.8 µM	15.4 µM (inactive)	55.7 µM (inactive)	22.2 µM (inactive)	14.9 µM (inactive)	30.8 µM (inactive)	14.8 µM (inactive)	34.9 µM (inactive)	> 100 µM (inactive)		> 100 µM (inactive)	28.1 µM (inactive)
Cc1c(C(=O)/C=C/c2ccccc2[N+](=O)[O-])[n+]([O-])c2ccccc2[n+]1[O-]	10.6 µM (inactive)	8.57 µM (inactive)	9.64 µM (inactive)		13.6 µM (inactive)	3.3 µM		5.13 µM (inactive)	12 µM (inactive)	11.3 µM (inactive)	11 µM (inactive)	11.7 µM (inactive)	3.9 µM (inactive)	13.7 µM (inactive)	4.34 µM (inactive)	19.1 µM (inactive)	3.96 µM (inactive)
COc1cccc(NC(=O)/C(CC(=O)CC(c2ccccc2)c2c(O)c3ccccc3oc2=O)=N\NC(C)(C)C)c1OC (centres undefined)	34.4 µM (inactive)		> 100 µM (inactive)	> 100 µM (inactive)	17.6 µM (inactive)	28.4 µM	33.3 µM (inactive)	> 100 µM (inactive)	> 100 µM (inactive)	> 100 µM (inactive)	44.5 µM (inactive)	> 100 µM (inactive)	> 100 µM (inactive)	> 100 µM (inactive)		> 100 µM (inactive)	69 µM (inactive)
